Measured values from US11384121B2, “Creation of peptide-based anti-tumor agent” (National University Corporation Hokkaido University, priority 2018, dated 2022).

Assays:
[1] = test system: MIA PaCa-2 cell line transplanted; experiment: Tumor-cell-transplanted animal model assay 1, size of transplanted tumor, MIA PaCa-2; assay type: in vivo, BALB/c nude mice; conditions: MIA PaCa-2 (FIG. 2-1)
Description: (§1) Anti-asialo GM1 (rabbit) (Wako Pure Chemical Industries, Ltd.) was intraperitoneally administered to BALB/c nude mice, and the mice were grown at room temperature for 2 hours. To the back of each BALB/c nude mouse, 2×10^6 test cells were subcutaneously injected for transplantation. Compound 11 or compound 12 in a dose of 50 ng or 500 ng or in a dose of 40 ng or 400 ng was intraperitoneally administered to each mouse on each day, from the day following the date of transplantation for mice with the SW620 cell line transplanted, from the day 1 week after the date of transplantation for mice with the MIA PaCa-2 cell line transplanted, and the growth of a tumor mass in each transplantation site was observed. No compound was administered to a control group, and echinomycin in a dose of 40 ng or 400 ng was intraperitoneally administered to each mouse in groups with administration of echinomycin on each day.
(§2) Each of the control group, groups with administration of echinomycin, groups with administration of compound 11, and groups with administration of compound 12 was n=5.

[2] = test system: SW620 cell line transplanted; experiment: Tumor-cell-transplanted animal model assay 1, size of transplanted tumor, SW620; assay type: in vivo, BALB/c nude mice
Description: as §1, §2

[3] = Tumor-cell-transplanted animal model assay 2, body weight variation; assay type: in vivo, BALB/c nude mice; conditions: MIA PaCa-2 transplanted mice
Description: Anti-asialo GM1 (rabbit) (Wako Pure Chemical Industries, Ltd.) was intraperitoneally administered to BALB/c nude mice, and the mice were grown at room temperature for 2 hours. To the back of each BALB/c nude mouse, 2×10^6 cells of the MIA PaCa-2 cell line were subcutaneously injected for transplantation. Compound 11 or compound 12 in a dose of 500 ng was intraperitoneally administered to each mouse on each day from the day following the date of transplantation, and body weight was measured on each day (n=5 for each group). No compound was administered to a control group, and echinomycin in a dose of 400 ng was intraperitoneally administered to each mouse in a group with administration of echinomycin on each day, and body weight was measured at the date of slaughter (n=5 for each group).

activated caspase-3 = experiment: Detection of activated caspase-3 (Western blotting); assay type: cell-based; conditions: 10 ng/mL, 48 hours; SW620; actin as endogenous control
Description: The SW620 cell line aliquoted into a 6-well plate at 2.0×10^3 cells/well was cultured for 24 hours, and compound 12 was then added to the culture solution to reach a final concentration of 10 ng/mL to initiate incubation, and the plate was taken out after 48 hours.
Proteins were collected by using a commercially available protein collection kit (mammalian cell extraction kit (BioVision, Inc.)) in accordance with a protocol provided by the manufacturer, and activated caspase-3 was quantified through Western blotting with a specific antibody to cleaved caspase-3 (Cell Signaling Technology, Inc.). Actin was used as an endogenous control. No compound was added for a control group, and echinomycin was added for a group with administration of echinomycin so that the final concentration of echinomycin reached 10 ng/mL, and the above-described operations were performed.
(§3) Each of the control group, group with administration of echinomycin, and group with administration of compound 12 was n=4.

SW620 cell line [4] = experiment: Cell death inducibility, TUNEL method; assay type: cell-based; conditions: 10 ng/mL, 48 hours
Description: The SW620 cell line aliquoted into a 4-well glass chamber slide at 5.0×10^4 cells/well was cultured for 24 hours, and compound 12 was then added to the culture solution to reach a final concentration of 10 ng/mL to initiate incubation, and the slide was taken out after 48 hours.
By using a commercially available cell death detection kit utilizing a TUNEL (TdT-mediated dUTP nick-end labeling) method (In Situ Cell Death Detection Kit and TMR red (Roche Diagnostic)) in accordance with a protocol provided by the manufacturer, TUNEL-stained cells (i.e., cells that underwent cell death) were detected and counted. No compound was added for a control group, and echinomycin was added for a group with administration of echinomycin so that the final concentration of echinomycin reached 10 ng/mL, and the above-described operations were performed.
as §3

MIA PaCa-2 cell line = experiment: SRB assay, pancreatic cancer cell (MIA PaCa-2 cell) line; assay type: cell-based
Description: (§4) Used for cells were an SW620 cell line (ATCC), which was a colorectal cancer cell line, and an MIA PaCa-2 cell line (ATCC) and a Suit2 cell line (Health Science Research Resources Bank), which were a pancreatic cancer cell line.
(§5) Culture of the MIA PaCa-2 cell line and the Suit2 cell line was performed by using a DMEM with 10% FBS, 2 mM L-glutamine, 50 U/mL penicillin, and 50 μg/mL streptomycin. Culture of the SW620 cell line was performed by using RPMI1640 with 10% FBS, 2 mM L-glutamine, 50 U/mL penicillin, and 50 μg/mL streptomycin.
(§6) Test cells aliquoted into a 96-well plate at 1.0×10^4 cells/well were cultured for 24 hours, and compound 11 or compound 12 was then added to the culture solution to reach a final concentration of 1 ng/mL, 10 ng/mL, 100 ng/mL, or 1000 ng/mL to initiate incubation, and the plate was taken out after 24 hours, 48 hours, 72 hours, and 96 hours (n=5 for each case).
(§7) To each well of the plate taken out, 100 μL of 10% trichloroacetic acid (TCA) was added, the plate was left to stand at 4° C. for 1 hour, and washed four times with pure water. […] Cell density after each incubation time was determined by measuring OD at 510 nm for stained cells lysed in 10 mM Tris buffer solution. […]

Suit2 cell line = experiment: SRB assay, pancreatic cancer cell (SuiT-2 cell) line; assay type: cell-based; conditions: 100 ng/mL or more
Description: as §4, §5, §6, §7

SW620 cell line [5] = experiment: SRB assay, colorectal cancer cell (SW620 cell) line; assay type: cell-based
Description: as §4, §5, §6, §7

[6] = Non Patent Literature 1; clinical development abandoned; cited from earlier work
HIF-1a = conditions: Non Patent Literature 2; cited from earlier work
[7] = 500 ng intraperitoneally each day

Structure (SMILES) | size of transplanted tumor ([1]; any of the loadings, intraperitoneally each day) | tumor size reduction compared with echinomycin ([2]; 40 ng versus 400 ng of echinomycin, cell line not given) | size of transplanted tumor ([2]; any of the loadings, intraperitoneally each day, SW620 (FIG. 2-2)) | body weight on day 28 of administration [3, 7] | amount of activated caspase-3, relative to control group (100±45) (activated caspase-3) | number of cells that underwent cell death (TUNEL-stained cells) (SW620 cell line [4]) | growth-suppressing activity at low concentration compared with echinomycin (MIA PaCa-2 cell line; 10 ng/mL) | absorbance (cell density, OD at 510 nm) versus control; activity to suppress the growth of cancer cells (MIA PaCa-2 cell line; 100 ng/mL or more) | absorbance (cell density, OD at 510 nm) versus control; activity to suppress the growth of cancer cells (Suit2 cell line) | growth-suppressing activity at low concentration compared with echinomycin (SW620 cell line [5]; 10 ng/mL) | absorbance (cell density, OD at 510 nm) versus control; activity to suppress the growth of cancer cells (SW620 cell line [5]; 100 ng/mL or more) | size of transplanted tumor [1, 7] | tumor size reduction compared with echinomycin ([1]; 500 ng versus 400 ng of echinomycin) | body weight on day 28 of administration ([3]; 400 ng intraperitoneally each day) | toxicity in phase 2 clinical trial [6] | HIF-1a inhibitory activity (HIF-1a)
CC(C)[C@H]1C(=O)OC[C@@H](NC(=O)c2nc3ccccc3cc2O)C(=O)N[C@@H](C)C(=O)N(C)[C@H]2CSC[C@@H](C(=O)N1C)N(C)C(=O)[C@H](C)NC(=O)[C@H](NC(=O)c1nc3ccccc3cc1O)COC(=O)[C@H](C(C)C)N(C)C2=O [compound 12] | reduction in the size of transplanted tumor | comparable with that of administration of 400 ng of echinomycin | reduction in the size of transplanted tumor | Large reduction in body weight was not found | 1107±273 | significantly larger than those for the control group and the group with administration of echinomycin | higher than that of echinomycin | significant difference in absorbance | significant difference in absorbance | higher than that of echinomycin | significant difference in absorbance | – | – | – | – | –
CC(C)[C@H]1C(=O)OC[C@@H](NC(=O)c2cnc3ccccc3n2)C(=O)N[C@@H](C)C(=O)N(C)[C@H]2CSC[C@@H](C(=O)N1C)N(C)C(=O)[C@H](C)NC(=O)[C@H](NC(=O)c1cnc3ccccc3n1)COC(=O)[C@H](C(C)C)N(C)C2=O [compound 11] | – | – | – | Large reduction in body weight was not found | – | – | – | – | – | – | – | Reduction in the size of transplanted tumor | comparable with that provided by administration of 400 ng of echinomycin | – | – | –
CS[C@H]1SC[C@H]2C(=O)N(C)[C@@H](C(C)C)C(=O)OC[C@@H](NC(=O)c3cnc4ccccc4n3)C(=O)N[C@@H](C)C(=O)N(C)[C@@H]1C(=O)N(C)[C@@H](C(C)C)C(=O)OC[C@@H](NC(=O)c1cnc3ccccc3n1)C(=O)N[C@@H](C)C(=O)N2C [echinomycin, reference compound] | – | – | – | – | 362±176 | – | – | – | – | – | – | – | – | Large reduction in body weight was not found | toxicity | HIF-1a inhibitory activity
